{"source": "patent US8148423B2", "about": "“Fluorophore compounds” (Versitech Limited, priority 2008, dated 2012)", "key": {"[1]": {"experiment": "Absorption spectra of rhodol fluorophores in phosphate buffer", "type": "physicochemical", "conditions": "for εmax: 50 mM aqueous phosphate buffer at pH about 8.0; for Abs Max: 50 mM aqueous phosphate buffer at pH about 8.0, 25° C.", "method": "(§1) The photophysical properties of the rhodol fluorophores in Table 1 were measured according to the procedures disclosed herein and are summarized in Table 1. Stock solutions were prepared by accurately weighting and dissolving about 5-10 mg of the rhodol fluorophores in Table 1 in acetonitrile (CH3CN). Absorbance solutions were prepared by further diluting the stock solution with 50 mM of potassium phosphate buffer at pH 8.0. Absorption spectra were recorded on a CARY 50 Bio UV-Visible spectrophotometer (obtainable from Varian Incorporation, Palo Alto, Calif.) under the control of a PC running the manufacturer supplied software package. Spectra were routinely acquired at 25° C., in 1 cm path length quartz cuvettes with a volume of 3.5 mL. Fluorescence spectra were recorded on a Hitachi F-2500 spectrofluorimeter (obtainable from Hitachi, Japan) under the control of a PC running the manufacturer supplied software package. Slit width was 2.5 nm for both the excitation spectrum and the fluorescence spectrum, and the photomultiplier voltage was […]. All spectra were corrected for emission intensity using the manufacturer-supplied photomultiplier curves. The quantum yields of the fluorophores may be estimated by comparison of the integrated area of the corrected emission spectrum of the sample with that of a reference solution, such as a solution of rhodamine 6 G in water (quantum efficiency 0.76). The concentration of the reference was adjusted to match the absorbance of the test sample."}, "[2]": {"experiment": "Fluorescence spectra and quantum yield of rhodol fluorophores, rhodamine 6G as reference", "type": "physicochemical", "conditions": "50 mM aqueous phosphate buffer at pH about 8.0, N.D. = no fluorescence detected; for QY (quantum yield): relative to rhodamine 6G (QY = 0.76 in water)", "method": "as §1"}}, "data": [{"smiles": "CCN(CC)c1ccc2c(c1)Oc1cc(O)ccc1C21OC(=O)c2ccccc21", "note": "(centres unmarked) [A=H, R1=Et, R2=Et]", "values": [{"measurement": "εmax", "setting": "[1]", "result": "47,000 cm^−1M^−1"}, {"measurement": "Abs Max", "setting": "[1]", "result": 522, "unit": "nm"}, {"measurement": "Em Max", "setting": "[2]", "result": 549, "unit": "nm"}, {"measurement": "QY (quantum yield)", "setting": "[2]", "result": 0.08}]}, {"smiles": "O=C1OC2(c3ccc(O)cc3Oc3cc(NCc4ccccc4)ccc32)c2ccccc21", "note": "(centres unmarked) [A=H, R1=H, R2=Bn]", "values": [{"measurement": "εmax", "setting": "[1]", "result": "71,000 cm^−1M^−1"}, {"measurement": "Abs Max", "setting": "[1]", "result": 503, "unit": "nm"}, {"measurement": "Em Max", "setting": "[2]", "result": 529, "unit": "nm"}, {"measurement": "QY (quantum yield)", "setting": "[2]", "result": 0.95}]}, {"smiles": "C=CC(=O)Nc1ccc2c(c1)Oc1cc(O)ccc1C21OC(=O)c2ccccc21", "note": "(centres unmarked) [A=H, R1=H, R2=COCHCH2]", "values": [{"measurement": "Abs Max", "setting": "[1]", "result": "462/490"}, {"measurement": "Em Max", "setting": "[2]", "result": 524, "unit": "nm"}, {"measurement": "QY (quantum yield)", "setting": "[2]", "result": 0.19}]}, {"smiles": "O=C(Nc1ccc2c(c1)Oc1cc(O)ccc1C21OC(=O)c2ccccc21)c1ccccc1", "note": "(centres unmarked) [A=H, R1=H, R2=COPh]", "values": [{"measurement": "Abs Max", "setting": "[1]", "result": "462/490"}, {"measurement": "Em Max", "setting": "[2]", "result": 525, "unit": "nm"}, {"measurement": "QY (quantum yield)", "setting": "[2]", "result": 0.16}]}, {"smiles": "Nc1ccc2c(c1)Oc1cc(O)ccc1C21OC(=O)c2ccccc21", "note": "(centres unmarked) [A=H, R1=H, R2=H]", "values": [{"measurement": "εmax", "setting": "[1]", "result": "~70,000 cm^−1M^−1"}, {"measurement": "Abs Max", "setting": "[1]", "result": 493, "unit": "nm"}, {"measurement": "Em Max", "setting": "[2]", "result": 516, "unit": "nm"}, {"measurement": "QY (quantum yield)", "setting": "[2]", "result": 0.98}]}, {"smiles": "O=C1OC2(c3ccc(O)cc3Oc3cc(Nc4ccccc4)ccc32)c2ccccc21", "note": "(centres unmarked) [A=H, R1=H, R2=Ph]", "values": [{"measurement": "εmax", "setting": "[1]", "result": "55,000 cm^−1M^−1"}, {"measurement": "Abs Max", "setting": "[1]", "result": 513, "unit": "nm"}]}, {"smiles": "CCCCNc1ccc2c(c1)Oc1cc(O)ccc1C21OC(=O)c2ccccc21", "note": "(centres unmarked) [A=H, R1=H, R2=n-Bu]", "values": [{"measurement": "εmax", "setting": "[1]", "result": "60,000 cm^−1M^−1"}, {"measurement": "Abs Max", "setting": "[1]", "result": 508, "unit": "nm"}, {"measurement": "Em Max", "setting": "[2]", "result": 533, "unit": "nm"}, {"measurement": "QY (quantum yield)", "setting": "[2]", "result": 0.90}]}, {"smiles": "CCCNc1ccc2c(c1)Oc1cc(O)ccc1C21OC(=O)c2ccccc21", "note": "(centres unmarked) [A=H, R1=H, R2=n-Pr]", "values": [{"measurement": "εmax", "setting": "[1]", "result": "61,000 cm^−1M^−1"}, {"measurement": "Abs Max", "setting": "[1]", "result": 507, "unit": "nm"}, {"measurement": "Em Max", "setting": "[2]", "result": 531, "unit": "nm"}, {"measurement": "QY (quantum yield)", "setting": "[2]", "result": 0.94}]}, {"smiles": "CN(C)c1ccc2c(c1)Oc1cc(O)ccc1C21OC(=O)c2ccccc21", "note": "(centres unmarked) [A=H, R1=Me, R2=Me]", "values": [{"measurement": "εmax", "setting": "[1]", "result": "64,000 cm^−1M^−1"}, {"measurement": "Abs Max", "setting": "[1]", "result": 518, "unit": "nm"}, {"measurement": "Em Max", "setting": "[2]", "result": 544, "unit": "nm"}, {"measurement": "QY (quantum yield)", "setting": "[2]", "result": 0.20}]}, {"smiles": "CCCCN(CCCC)c1ccc2c(c1)Oc1cc(O)ccc1C21OC(=O)c2ccccc21", "note": "(centres unmarked) [A=H, R1=n-Bu, R2=n-Bu]", "values": [{"measurement": "εmax", "setting": "[1]", "result": "63,000 cm^−1M^−1"}, {"measurement": "Abs Max", "setting": "[1]", "result": 525, "unit": "nm"}, {"measurement": "Em Max", "setting": "[2]", "result": 553, "unit": "nm"}, {"measurement": "QY (quantum yield)", "setting": "[2]", "result": 0.12}]}, {"smiles": "O=C1OC2(c3ccc(O)cc3Oc3cc(N4CCCCC4)ccc32)c2ccccc21", "note": "(centres unmarked) [A=H, R1R2=CH2CH2CH2CH2CH2]", "values": [{"measurement": "εmax", "setting": "[1]", "result": "62,500 cm^−1M^−1"}, {"measurement": "Abs Max", "setting": "[1]", "result": 523, "unit": "nm"}, {"measurement": "Em Max", "setting": "[2]", "result": 555, "unit": "nm"}, {"measurement": "QY (quantum yield)", "setting": "[2]", "result": 0.03}]}, {"smiles": "COCOc1ccc2c(c1)Oc1cc(NC(=O)c3ccccc3)ccc1C21OC(=O)c2ccccc21", "note": "(centres unmarked) [A=MOM, R1=H, R2=COPh]", "values": [{"measurement": "Abs Max", "setting": "[1]", "result": 293, "unit": "nm"}]}, {"smiles": "CCCNc1ccc2c(c1)Oc1cc(OCOC)ccc1C21OC(=O)c2ccccc21", "note": "(centres unmarked) [A=MOM, R1=H, R2=n-Pr]", "values": [{"measurement": "Abs Max", "setting": "[1]", "result": 494, "unit": "nm"}, {"measurement": "Em Max", "setting": "[2]", "result": 532, "unit": "nm"}, {"measurement": "QY (quantum yield)", "setting": "[2]", "result": 0.35}]}, {"smiles": "COc1ccc2c(c1)Oc1cc(N)ccc1C21OC(=O)c2ccccc21", "note": "(centres unmarked) [A=Me, R1=H, R2=H]", "values": [{"measurement": "Abs Max", "setting": "[1]", "result": 477, "unit": "nm"}, {"measurement": "Em Max", "setting": "[2]", "result": 516, "unit": "nm"}, {"measurement": "QY (quantum yield)", "setting": "[2]", "result": 0.85}]}]}
